Assay results from patent publication US9370522B2, “Heterocyclic compounds for the inhibition of PASK” (BioEnergenix, LLC, priority 2009, dated 2016).
pIC50: −log10 of the molar value.

target: T1, PASK (UniProt #Q96RG2; human recombinant N-terminal GST tagged construct, residues 879-1323) (Homo sapiens, UniProt Q96RG2); assay: 33P-ATP radiometric PASK kinase assay (P81 phosphocellulose, scintillation counting); assay type: biochemical; settings: Table 2, Myelin Basic Protein 20 μM, 120 min room temperature, average of all trials, read-out: IC50 Kinase Domain
T1 construct: N-terminal GST tagged construct, residues 879-1323; GST (N); made in house; host or cells: insect cells
Method: Purified PASK (UniProt #Q96RG2; human recombinant N-terminal GST tagged construct, residues 879-1323) from insect cells (final concentration 5 nM) is added to freshly prepared Base Reaction Buffer containing 20 mM Hepes (pH 7.5), 10 mM MgCl2, 1 mM EGTA, 0.02% Brij35, 0.02 mg/ml BSA, 0.1 mM Na3VO4, 2 mM DTT, 1% DMSO and Myelin Basic Protein (20 μM final). Test compounds in DMSO are then added and the mixture, followed by delivery of ^33P-ATP (specific activity 0.01 μCi/μl final) to initiate the reaction. The kinase reaction is incubated for 120 min at room temperature. The entire reaction mixture is washed through onto a P81 Phosphocellulose paper and washed three times for 10 minutes in 75 mM phosphoric acid and once in methanol prior to drying and scintillation counting. When the assay was repeated for a given compound, the activity data is based on the average of all trials.

T1 sequence (Q96RG2 879-1323, stated change not applied): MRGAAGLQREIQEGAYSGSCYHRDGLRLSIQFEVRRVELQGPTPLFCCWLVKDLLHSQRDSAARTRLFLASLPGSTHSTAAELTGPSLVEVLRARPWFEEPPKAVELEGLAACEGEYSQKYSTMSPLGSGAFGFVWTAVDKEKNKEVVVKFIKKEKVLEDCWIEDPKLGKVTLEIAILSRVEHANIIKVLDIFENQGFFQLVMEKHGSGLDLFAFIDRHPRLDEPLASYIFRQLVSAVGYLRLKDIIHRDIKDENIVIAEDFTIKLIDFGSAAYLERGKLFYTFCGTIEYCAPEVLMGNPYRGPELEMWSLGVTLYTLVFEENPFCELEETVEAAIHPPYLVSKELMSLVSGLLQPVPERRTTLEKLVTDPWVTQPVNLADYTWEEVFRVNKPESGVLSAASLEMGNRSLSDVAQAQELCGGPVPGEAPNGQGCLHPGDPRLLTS

`O=C(O)c1cc2nc(-c3ccc(F)cc3)c(-c3ccc(F)cc3)nc2cc1O` [Example 25, 2,3-Bis(4-fluorophenyl)-7-hydroxyquinoxaline-6-carboxylic acid] and `O=C(O)c1cc2nc(-c3ccc(Cl)cc3)c(-c3ccc(Cl)cc3)nc2cc1O` [Example 26, 2,3-Bis(4-chlorophenyl)-7-hydroxyquinoxaline-6-carboxylic acid] cannot be ordered by pIC50: ≥ 5.00 for the first, ≤ 5.00 for the second.

`COc1ccc(-c2nc3cc(C(=O)O)ccc3nc2-c2ccccc2)c(OC)c1` [Example 45, 3-(2,4-Dimethoxyphenyl)-2-phenylquinoxaline-6-carboxylic acid] and `COc1ccc(-c2nc3cc(C(=O)O)ccc3nc2-c2ccccc2)cc1OC` [Example 17, 3-(3,4-Dimethoxyphenyl)-2-phenylquinoxaline-6-carboxylic acid] cannot be ordered by pIC50: ≥ 5.00 for the first, ≥ 5.00 for the second.

`O=C(O)c1ccc2nc(-c3ccccc3)c(-c3cccc4ccccc34)nc2c1` [Example 19, 3-(Naphthalene-1-yl)-2-phenylquinoxaline-6-carboxylic acid] and `O=C(O)c1ccc2nc(-c3ccccc3)c(-c3ccc4ccccc4c3)nc2c1` [Example 18, 3-(Naphthalen-2-yl)-2-phenylquinoxaline-6-carboxylic acid] cannot be ordered by pIC50: ≥ 5.00 for the first, ≥ 5.00 for the second.

`O=C(O)c1ccc2nc(-c3ccccc3)c(-c3ccc([N+](=O)[O-])cc3)nc2c1` [Example 41, 3-(4-Nitrophenyl)-2-phenylquinoxaline-6-carboxylic acid] and `O=C(O)c1ccc2nc(-c3ccccc3)c(-c3ccc(Cl)cc3)nc2c1` [Example 30, 3-(4-Chlorophenyl)-2-phenylquinoxaline-6-carboxylic acid] cannot be ordered by pIC50: ≥ 5.00 for the first, ≥ 5.00 for the second.

`O=C(O)c1ccc2nc(-c3ccccc3)c(-c3cccc(O)c3)nc2c1` [Example 46, 3-(3-Hydroxyphenyl)-2-phenylquinoxaline-6-carboxylic acid] and `Cc1cccc(-c2nc3cc(C(=O)O)ccc3nc2-c2ccccc2)c1` [Example 40, 2-Phenyl-3-m-tolylquinoxaline-6-carboxylic acid] cannot be ordered by pIC50: ≥ 5.00 for the first, ≥ 5.00 for the second.

`O=C(O)c1ccc2nc(-c3ccccc3)c(-c3ccccc3-c3ccccc3)nc2c1` [Example 24, 3-(Biphenyl-2-yl)-2-phenylquinoxaline-6-carboxylic acid] and `O=C(O)c1ccc2nc(-c3ccccc3)c(-c3ccc(-c4ccccc4)cc3)nc2c1` [Example 47, 2-Phenyl-3-(4-phenyl-phenyl)quinoxaline-6-carboxylic acid] cannot be ordered by pIC50: ≤ 5.00 for the first, ≥ 5.00 for the second.

`O=C(O)c1ccc2nc(-c3ccccc3)c(-c3ccc4c(c3)OCO4)nc2c1` [Example 20, 3-(Benzo[d][1,3]dioxol-5-yl)-2-phenylquinoxaline-6-carboxylic acid] and `O=C(O)c1ccc2nc(-c3ccccc3)c(-c3cccc(F)c3)nc2c1` [Example 38, 3-(3-Fluorophenyl)-2-phenylquinoxaline-6-carboxylic acid] cannot be ordered by pIC50: ≥ 5.00 for the first, ≥ 5.00 for the second.

`N#Cc1ccc(-c2nc3cc(C(=O)O)ccc3nc2-c2ccccc2)cc1` [Example 22, 3-(4-Cyanophenyl)-2-phenylquinoxaline-6-carboxylic acid] and `O=C(O)c1ccc2nc(-c3ccccc3)c(-c3ccc(O)cc3)nc2c1` [Example 44, 3-(4-Hydroxyphenyl)-2-phenylquinoxaline-6-carboxylic acid] cannot be ordered by pIC50: ≥ 5.00 for the first, ≥ 5.00 for the second.

`O=C(O)c1ccc(-c2nc3cc(C(=O)O)ccc3nc2-c2ccccc2)cc1` [Example 35, 3-(4-Carboxyphenyl)-2-phenylquinoxaline-6-carboxylic acid] and `O=C(O)c1ccc2nc(-c3ccccc3)c(-c3ccc(Br)cc3)nc2c1` [Example 31, 3-(4-Bromophenyl)-2-phenylquinoxaline-6-carboxylic acid] cannot be ordered by pIC50: ≤ 5.00 for the first, ≥ 5.00 for the second.

`COc1ccc(-c2nc3cc(O)c(C(=O)O)cc3nc2-c2ccc(OC)cc2)cc1` [Example 27, 7-Hydroxy-2,3-bis(4-methoxyphenyl)quinoxaline-6-carboxylic acid] and `O=C(O)c1cc2nc(-c3ccc(O)cc3)c(-c3ccc(O)cc3)nc2cc1O` [Example 28, 7-Hydroxy-2,3-bis(4-hydroxyphenyl)quinoxaline-6-carboxylic acid] cannot be ordered by pIC50: ≥ 5.00 for the first, ≥ 5.00 for the second.

`O=C(O)c1ccc2nc(-c3ccccc3)c(-c3ccoc3)nc2c1` [Example 42, 3-(Furan-3-yl)-2-phenylquinoxaline-6-carboxylic acid] and `O=C(O)c1ccc2nc(-c3ccccc3)c(-c3ccsc3)nc2c1` [Example 43, 2-Phenyl-3-(thiophen-3-yl)quinoxaline-6-carboxylic acid] cannot be ordered by pIC50: ≥ 5.00 for the first, ≥ 5.00 for the second.

`O=C(O)c1cc2nc(-c3cccc(O)c3)c(-c3cccc(O)c3)nc2cc1O` [Example 29, 7-Hydroxy-2,3-bis(3-hydroxyphenyl)quinoxaline-6-carboxylic acid] and `O=C(O)c1ccc2nc(-c3ccccc3)c(-c3ccc(CO)cc3)nc2c1` [Example 34, 3-(4-(Hydroxymethyl)phenyl)-2-phenylquinoxaline-6-carboxylic acid] cannot be ordered by pIC50: ≤ 5.00 for the first, ≥ 5.00 for the second.

`Cc1nc2cc(C(=O)O)ccc2nc1-c1ccccc1` [Example 14, 3-Methyl-2-phenylquinoxaline-6-carboxylic acid] and `CCc1nc2cc(C(=O)O)ccc2nc1-c1ccccc1` [Example 48, 3-Ethyl-2-phenylquinoxaline-6-carboxylic acid] cannot be ordered by pIC50: ≤ 5.00 for the first, ≤ 5.00 for the second.

`O=C(O)c1ccc2nc(-c3ccccc3)c(-c3cccc(OC(F)(F)F)c3)nc2c1` [Example 37, 2-Phenyl-3-(3-(trifluoromethoxy)phenyl)quinoxaline-6-carboxylic acid] and `O=C(O)c1ccc2nc(-c3ccccc3)c(-c3ccc(OC(F)(F)F)cc3)nc2c1` [Example 36, 2-Phenyl-3-(4-(trifluoromethoxy)phenyl)quinoxaline-6-carboxylic acid] cannot be ordered by pIC50: ≥ 5.00 for the first, ≥ 5.00 for the second.

`O=C(O)c1ccc2nc(-c3ccccc3)c(-c3ccc(C(F)(F)F)cc3)nc2c1` [Example 13, 2-Phenyl-3-(4-(trifluoromethyl)phenyl)quinoxaline-6-carboxylic acid] and `Cc1ccc(-c2nc3cc(C(=O)O)ccc3nc2-c2ccccc2)cc1` [Example 15, 2-Phenyl-3-p-tolylquinoxaline-6-carboxylic acid] cannot be ordered by pIC50: ≥ 5.00 for the first, ≥ 5.00 for the second.

`CCOc1ccc(-c2nc3cc(C(=O)O)ccc3nc2-c2ccccc2)cc1` [Example 16, 3-(4-Ethoxyphenyl)-2-phenylquinoxaline-6-carboxylic acid] and `COc1ccc(-c2nc3cc(C(=O)O)ccc3nc2-c2ccccc2)cc1` [Example 23, 3-(4-Methoxyphenyl)-2-phenylquinoxaline-6-carboxylic acid] cannot be ordered by pIC50: ≥ 5.00 for the first, ≥ 5.00 for the second.

`CCc1ccc(-c2nc3cc(C(=O)O)ccc3nc2-c2ccccc2)cc1` [Example 32, 3-(4-Ethylphenyl)-2-phenylquinoxaline-6-carboxylic acid] and `O=C(O)c1ccc2nc(-c3ccccc3)c(-c3ccncc3)nc2c1` [Example 21, 2-Phenyl-3-(pyridin-4-yl)quinoxaline-6-carboxylic acid] cannot be ordered by pIC50: ≥ 5.00 for the first, ≥ 5.00 for the second.

`Cc1ccccc1-c1nc2cc(C(=O)O)ccc2nc1-c1ccccc1` [Example 39, 2-Phenyl-3-o-tolylquinoxaline-6-carboxylic acid] and `O=C(O)c1ccc2nc(-c3ccco3)c(-c3ccccc3)nc2c1` [Example 12, 2-(Furan-2-yl)-3-phenylquinoxaline-6-carboxylic acid] cannot be ordered by pIC50: ≥ 5.00 for the first, ≥ 5.00 for the second.

target: T2, hPASK Kinase Domain (Homo sapiens, UniProt Q96RG2); assay: Biochemical Assay for hPASK Activity (Kinase-Glo Luminescent Kinase Assay), kinase domain; settings: Table 1, second part (Examples 33-59)
T2 construct: made in house; host or cells: insect cells
Method: The assay for purified hPASK activity utilizes the Kinase-Glo Luminescent Kinase Assay (Promega), which quantifies the amount of ATP remaining in solution following kinase reaction. The assay is carried out in a 96-well plate format and is performed by adding a volume of Kinase-Glo Reagent (Promega, catalog #V3771) equal to the volume of solution in the well of a completed kinase reaction. Kinase-Glo reagent contains Luciferase and its substrate. After addition to a kinase reaction it allows to measure luminescence. The amount of ATP left in solution at the time of Kinase-Glo Plus addition is directly proportional to the luminescence that is measured in each well, and inversely correlated with kinase activity.
Purified hPASK from insect cells (0.02 μg) is added to a 50 μL reaction mix containing 40 mM Hepes (pH 7.0), 100 mM KCl, 5 mM MgCl2, 1 mM DTT and 1 ug of MBP protein. Inhibitory compounds are then added and the mixture is incubated for 10 min at 25° C. before adding 5 μL of ATP (at desired concentration). The reaction is allowed to proceed at 25° C. for 1 hour before adding 50 μL of Kinase-Glo reagent. The luminescence is measured as soon as 10 minutes after Kinase-Glo reagent is added.

T2 sequence (Q96RG2 999-1251 limits assumed): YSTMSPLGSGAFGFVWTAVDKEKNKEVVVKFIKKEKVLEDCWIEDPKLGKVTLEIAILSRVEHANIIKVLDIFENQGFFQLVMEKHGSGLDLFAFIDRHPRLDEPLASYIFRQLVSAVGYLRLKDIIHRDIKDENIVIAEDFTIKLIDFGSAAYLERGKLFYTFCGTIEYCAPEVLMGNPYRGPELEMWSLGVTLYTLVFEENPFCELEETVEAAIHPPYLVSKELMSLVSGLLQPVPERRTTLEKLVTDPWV

`COc1ccc(-c2nc3ccc(S(N)(=O)=O)cc3nc2-c2ccc(OC)cc2)cc1` [Example 53, 2,3-Bis(4-methoxyphenyl)quinoxaline-6-sulfonamide] and `CNS(=O)(=O)c1ccc2nc(-c3ccc(OC)cc3)c(-c3ccc(OC)cc3)nc2c1` [Example 54, 2,3-Bis(4-methoxyphenyl)-N-methylquinoxaline-6-sulfonamide] cannot be ordered by pIC50: ≥ 5.00 for the first, ≤ 5.00 for the second.

`CCc1ccc(-c2nc3ccc(C(=O)NOC)cc3nc2-c2ccc(CC)cc2)cc1` [Example 59, 2,3-Bis(4-ethylphenyl)-N-methoxyquinoxaline-6-carboxamide] and `COc1ccc(-c2nc3ccc(/C=C/C(=O)O)cc3nc2-c2ccc(OC)cc2)cc1` [Example 56, (E)-3-(2,3-bis(4-methoxyphenyl)quinoxalin-6-yl)acrylic acid] cannot be ordered by pIC50: ≥ 5.00 for the first, ≤ 5.00 for the second.

In the case of `O=C(O)c1cccc(-c2nc3cc(C(=O)O)ccc3nc2-c2ccccc2)c1` [Example 50, 3-(3-Carboxyphenyl)-2-phenylquinoxaline-6-carboxylic acid], the pIC50 was ≥ 5.00.
